Measured values taken from ChEMBL document CHEMBL3822455, “Aryl or heteroaryl substituted aminal derivatives of HCV NS5A inhibitor MK-8742” (Bioorg Med Chem Lett, 2016).
pEC50: −log10 of the molar value.

Assays:
Hepatitis C virus [1] = experiment: Antiviral activity against HCV genotype 4a assessed as replicon RNA level measured after 3 days by real-time PCR method; format: functional, organism-based, Hepacivirus hominis; conditions: 72 h
Hepatitis C virus [2] = experiment: Antiviral activity against HCV genotype 1a assessed as replicon RNA level measured after 3 days by real-time PCR method; format: functional, organism-based, Hepacivirus hominis; conditions: subtype 1a, 72 h
[3] = Clearance in Sprague-Dawley rat at 2 mg/kg, iv or 5 mg/kg, po; format: ADME, organism-based; conditions: in vivo
Hepatitis C virus [4] = experiment: Antiviral activity against HCV genotype 2b assessed as replicon RNA level measured after 3 days by real-time PCR method; format: functional, organism-based, Hepacivirus hominis; conditions: 72 h
Hepatitis C virus [5] = experiment: Antiviral activity against HCV genotype 1a harboring NS5A Y93H mutant assessed as replicon RNA level measured after 3 days by real-time PCR method; format: functional, organism-based, Hepacivirus hominis; conditions: subtype 1a, 72 h
[6] = Half life in Sprague-Dawley rat at 2 mg/kg, iv or 5 mg/kg, po; format: ADME, organism-based; conditions: in vivo
Hepatitis C virus [7] = experiment: Antiviral activity against HCV genotype 1b assessed as replicon RNA level measured after 3 days by real-time PCR method; format: functional, organism-based, Hepacivirus hominis; conditions: 72 h
Hepatitis C virus [8] = experiment: Antiviral activity against HCV genotype 3a assessed as replicon RNA level measured after 3 days by real-time PCR method; format: functional, organism-based, Hepacivirus hominis; conditions: 72 h
[9] = (§1) AUC in Sprague-Dawley rat at 5 mg/kg, po; format: ADME, organism-based; conditions: Sprague-Dawley, in vivo
Hepatitis C virus [10] = experiment: Antiviral activity against HCV genotype 1a harboring NS5A L31V mutant assessed as replicon RNA level measured after 3 days by real-time PCR method; format: functional, organism-based, Hepacivirus hominis; conditions: subtype 1a, 72 h
[11] = (§2) Oral bioavailability in Sprague-Dawley rat at 5 mg/kg; format: ADME, organism-based; conditions: Sprague-Dawley, in vivo
Hepatitis C virus [12] = experiment: Antiviral activity against HCV genotype 2a assessed as replicon RNA level measured after 3 days by real-time PCR method; format: functional, organism-based, Hepacivirus hominis; conditions: 72 h
Rattus norvegicus [13] = experiment: as §1; format: ADME, organism-based; conditions: in vivo
Rattus norvegicus [14] = experiment: as §2; format: ADME, organism-based; conditions: in vivo

Row | SMILES | pEC50 (Hepatitis C virus [1]) | pEC50 (Hepatitis C virus [2]) | clearance [3] [L/h/kg] | pEC50 (Hepatitis C virus [4]) | pEC50 (Hepatitis C virus [5]) | half-life [6] [h] | pEC50 (Hepatitis C virus [7]) | pEC50 (Hepatitis C virus [8]) | AUC [9] [nM·h] | pEC50 (Hepatitis C virus [10]) | bioavailability [11] [%] | pEC50 (Hepatitis C virus [12]) | AUC (Rattus norvegicus [13]) [nM·h] | F (Rattus norvegicus [14]) [%]
1 | COC(=O)N[C@H](C(=O)N1CCC[C@H]1c1ncc(-c2ccc3c(c2)OC(c2cc(F)cc(F)c2)n2c-3cc3cc(-c4cnc([C@@H]5CCCN5C(=O)[C@@H](NC(=O)OC)C(C)C)[nH]4)ccc32)[nH]1)C(C)C (stereo partly drawn) | 11.40 | 10.96 | 0.54 | 9.30 | 8.40 | 5.1 | 11.00 | 10.05 | 1500 | 9.52 | 15 | 10.70 |  | 
2 | COC(=O)N[C@H](C(=O)N1CCC[C@H]1c1ncc(-c2ccc3c(c2)OC(c2ccc(Cl)cc2)n2c-3cc3cc(-c4cnc([C@@H]5CCCN5C(=O)[C@@H](NC(=O)OC)C(C)C)[nH]4)ccc32)[nH]1)C(C)C (stereo partly drawn) | 11.00 | 11.05 | 0.6 |  | 8.30 | 4.5 | 11.00 | 10.40 | 880 | 9.52 | 10 | 11.30 |  | 
3 | COC(=O)N[C@H](C(=O)N1CCC[C@H]1c1ncc(-c2ccc3c(c2)OC(c2cccc(F)c2)n2c-3cc3cc(-c4cnc([C@@H]5CCCN5C(=O)[C@@H](NC(=O)OC)C(C)C)[nH]4)ccc32)[nH]1)C(C)C (stereo partly drawn) | 11.22 | 11.52 | 0.42 | 9.00 | 8.40 | 5.4 | 11.70 | 10.40 | 1500 | 9.70 | 12 | 11.40 |  | 
4 | COC(=O)N[C@H](C(=O)N1CCC[C@H]1c1ncc(-c2ccc3c(c2)OC(c2cccc(Cl)c2)n2c-3cc3cc(-c4cnc([C@@H]5CCCN5C(=O)[C@@H](NC(=O)OC)C(C)C)[nH]4)ccc32)[nH]1)C(C)C (stereo partly drawn) | 11.70 | 11.52 | 0.48 | 9.40 | 8.52 | 4.1 | 11.70 | 10.52 | 1400 | 10.00 | 12 | 11.00 |  | 
5 | COC(=O)N[C@H](C(=O)N1CCC[C@H]1c1ncc(-c2ccc3c(c2)OC(c2ccc(OC(F)(F)F)cc2)n2c-3cc3cc(-c4cnc([C@@H]5CCCN5C(=O)[C@@H](NC(=O)OC)C(C)C)[nH]4)ccc32)[nH]1)C(C)C (mixture of isomers) | 9.70 | 11.30 |  |  | 8.52 | 6.3 | 10.96 | 10.52 |  | 9.70 |  | 11.30 | 1100 | 7
6 | COC(=O)N[C@H](C(=O)N1CCC[C@H]1c1ncc(-c2ccc3c(c2)OC(c2cccnc2)n2c-3cc3cc(-c4cnc([C@@H]5CCCN5C(=O)[C@@H](NC(=O)OC)C(C)C)[nH]4)ccc32)[nH]1)C(C)C (mixture of isomers) | 10.52 | 11.30 |  | 8.70 | 8.15 |  | 11.05 | 8.70 |  | 9.05 |  | 10.40 |  | 
7 | COC(=O)N[C@H](C(=O)N1CCC[C@H]1c1ncc(-c2ccc3c(c2)OC(c2ccccc2F)n2c-3cc3cc(-c4cnc([C@@H]5CCCN5C(=O)[C@@H](NC(=O)OC)C(C)C)[nH]4)ccc32)[nH]1)C(C)C (stereo partly drawn) | 11.15 | 11.70 | 0.72 | 8.52 | 8.22 | 4.6 | 11.52 | 10.00 | 670 | 9.40 | 8 | 11.52 |  | 
8 | CNC(=O)c1cccc(C2Oc3cc(-c4cnc([C@@H]5CCCN5C(=O)[C@@H](NC(=O)OC)C(C)C)[nH]4)ccc3-c3cc4cc(-c5cnc([C@@H]6CCCN6C(=O)[C@@H](NC(=O)OC)C(C)C)[nH]5)ccc4n32)c1 (mixture of isomers) | 9.74 | 10.22 |  | 7.62 | 6.84 |  | 11.00 | 9.05 |  | > 8.00 |  | 10.05 |  | 
9 | COC(=O)N[C@H](C(=O)N1CCC[C@H]1c1ncc(-c2ccc3c(c2)OC(c2ccc(-c4cncnc4)cc2)n2c-3cc3cc(-c4cnc([C@@H]5CCCN5C(=O)[C@@H](NC(=O)OC)C(C)C)[nH]4)ccc32)[nH]1)C(C)C (mixture of isomers) | 10.40 | 10.15 |  | 7.89 | 7.15 |  | 10.64 | 9.00 |  | 8.00 |  | 10.40 |  | 
10 | COC(=O)N[C@H](C(=O)N1CCC[C@H]1c1ncc(-c2ccc3c(c2)OC(c2cccc(C4CC4)c2)n2c-3cc3cc(-c4cnc([C@@H]5CCCN5C(=O)[C@@H](NC(=O)OC)C(C)C)[nH]4)ccc32)[nH]1)C(C)C (mixture of isomers) | 11.70 | 11.40 |  | 8.15 | 7.92 |  | 11.70 | 9.52 |  | 9.22 |  | 11.00 |  | 
11 | COC(=O)N[C@H](C(=O)N1CCC[C@H]1c1ncc(-c2ccc3c(c2)OC(c2cccc(-c4ccccc4)c2)n2c-3cc3cc(-c4cnc([C@@H]5CCCN5C(=O)[C@@H](NC(=O)OC)C(C)C)[nH]4)ccc32)[nH]1)C(C)C (stereo partly drawn) | 11.30 | 11.52 |  | 9.00 | 8.10 |  | 11.40 | 10.15 |  | 9.52 |  | 11.52 |  | 
12 | COC(=O)N[C@H](C(=O)N1CCC[C@H]1c1ncc(-c2ccc3c(c2)OC(c2ccc(-c4ccc5cncn5c4)cc2)n2c-3cc3cc(-c4cnc([C@@H]5CCCN5C(=O)[C@@H](NC(=O)OC)C(C)C)[nH]4)ccc32)[nH]1)C(C)C (mixture of isomers) | 10.52 | 10.52 |  | 8.40 | 7.70 |  | 11.00 | 9.00 |  | 8.70 |  | 10.40 |  | 
13 | COC(=O)N[C@H](C(=O)N1CCC[C@H]1c1ncc(-c2ccc3c(c2)OC(c2ccc(-c4ccncc4)cc2)n2c-3cc3cc(-c4cnc([C@@H]5CCCN5C(=O)[C@@H](NC(=O)OC)C(C)C)[nH]4)ccc32)[nH]1)C(C)C (mixture of isomers) | 10.70 | 11.52 |  | > 8.70 | 7.72 |  | 11.40 | 10.00 |  | 9.52 |  | > 9.70 |  | 
14 | COC(=O)N[C@H](C(=O)N1CCC[C@H]1c1ncc(-c2ccc3c(c2)OC(c2cccc(N4CCOCC4)c2)n2c-3cc3cc(-c4cnc([C@@H]5CCCN5C(=O)[C@@H](NC(=O)OC)C(C)C)[nH]4)ccc32)[nH]1)C(C)C (mixture of isomers) | 11.15 | 11.40 |  | 7.77 | 7.28 |  | 11.22 | 9.92 |  | 9.52 |  | 11.70 |  | 
